Experimental data reported in paper PMC6693746 (PLoS Genetics, 2019).

Tests used:
ErGPCR-2 = biological target: T1, ErGPCR-2 (Helicoverpa armigera, UniProt A0A0U1ZWU3); assay: saturation binding with isolated receptor, […] enzyme immunoassay
T1 construct: ErGPCR-2-GFP-His, 7TM region and added signal peptide (GenBank AKA95280.1), isolated from Sf9 cells
T1 sequence (A0A0U1ZWU3 430-703 limits assumed): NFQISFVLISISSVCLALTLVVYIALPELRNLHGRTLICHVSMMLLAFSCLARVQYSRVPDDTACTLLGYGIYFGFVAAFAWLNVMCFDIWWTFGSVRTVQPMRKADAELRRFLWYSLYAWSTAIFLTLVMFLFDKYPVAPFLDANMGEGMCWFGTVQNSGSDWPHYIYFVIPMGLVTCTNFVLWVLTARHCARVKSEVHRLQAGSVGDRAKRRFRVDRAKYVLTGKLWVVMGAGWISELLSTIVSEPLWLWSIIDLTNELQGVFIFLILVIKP

dopamine receptor DopEcR [1] = biological target: T2, dopamine receptor DopEcR (Helicoverpa armigera, UniProt A0A386QW71, T113A/W160A/Y109A/Y68A); assay: saturation binding with isolated mutant receptor, […] enzyme immunoassay (lower Bmax)
T2 construct: DopEcR-M-GFP-His, isolated from Sf9 cells

dopamine receptor DopEcR [2] = biological target: T3, dopamine receptor DopEcR (Helicoverpa armigera, UniProt A0A386QW71); assay: saturation binding with isolated receptor, […] enzyme immunoassay; also displacement of DA (Ki […])
T3 construct: DopEcR-GFP-His (GenBank MG596302), isolated from Sf9 cells
T3 sequence (A0A386QW71 1-343): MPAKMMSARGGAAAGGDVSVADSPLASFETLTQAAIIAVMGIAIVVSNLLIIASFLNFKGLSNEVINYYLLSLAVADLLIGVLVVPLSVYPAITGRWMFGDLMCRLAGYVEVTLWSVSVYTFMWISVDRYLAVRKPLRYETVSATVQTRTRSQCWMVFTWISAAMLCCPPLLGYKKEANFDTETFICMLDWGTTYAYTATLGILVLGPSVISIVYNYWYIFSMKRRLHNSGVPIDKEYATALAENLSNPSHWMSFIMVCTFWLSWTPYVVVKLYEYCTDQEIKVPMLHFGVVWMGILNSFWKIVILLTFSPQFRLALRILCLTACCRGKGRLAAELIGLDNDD

dopamine receptor DopEcR [3] = biological target: dopamine receptor DopEcR (Helicoverpa armigera, UniProt A0A386QW71); assay: biochemical

For CC(C)(O)CC[C@@H](O)[C@](C)(O)[C@H]1CC[C@@]2(O)C3=CC(=O)[C@@H]4C[C@@H](O)[C@@H](O)C[C@]4(C)[C@H]3CC[C@]12C [20E, 20-hydroxyecdysone], the Kd (ErGPCR-2) was 23.3 ± 3.3 nM, the Kd (dopamine receptor DopEcR [1]) was 20.5 ± 1.98 nM and the Kd (dopamine receptor DopEcR [2]) was 18 ± 3 nM.

With NCCc1ccc(O)c(O)c1 [DA, dopamine] the Kd (dopamine receptor DopEcR [3]) was 448 ± 101 nM.
